Results as given in patent US10603322B2, “Therapeutic targeting of casein kinase 1δ in breast cancer” (The Scripps Research Institute, priority 2015, dated 2020).

How the values were obtained:
[1] = test system: breast cancer cell types overexpressing CK1δ; experiment: Cell proliferation assay (Cell-Titer Glo, 72 hr); format: cell-based; details: Homo sapiens
Method: Cell proliferation was measured 72 hr after SR-3029 or vehicle treatment using Cell-Titer Glo (Promega) according to the manufacturers' instructions. EC50 values were determined using non-linear regression and a four-parameter algorithm (GraphPad Prism5). For clonogenic assays, cells were plated in 6-well dishes in triplicate at a density of 500-1000 cells per well. After overnight incubation, SR-3029 or vehicle (DMSO) was added to media for 72 hr and cells were allowed to grow out for 7-10 days, during which media was changed every 2-3 days in the absence of compound. Colonies were fixed in 4% paraformaldehyde/PBS and stained with 0.5% methylene blue in 50% ethanol for 1 hr at room temperature and de-stained with water. Colonies with greater than 50 cells were counted using a low magnification light microscope.

[2] = test system: MDA-MB-231 TNBC cells; experiment: Cell proliferation / growth assay; format: cell-based, human; details: forced expression of β-catenin-S33Y or β-catenin N90; 72 hr
[3] = test system: MDA-MB-231-luc tumors; experiment: Orthotopic MDA-MB-231-luc tumor model, treatment from day 7; format: in vivo, nude mice; details: 20 mg/kg daily i.p.
Excerpt: (§1) All animal studies are approved by the Scripps Florida IACUC. Stable pools of MDA-MB-231-Luc, MDA-MB-231, MDA-MB-468, SKBR3 or BT474 cells were established by injection of 2×10^6 cancer cells into the mammary fat pads of 6-week old female athymic nude mice (Charles River Laboratories). Establishment of BCM-4013 patient derived xenografts were as described (19). Briefly, fresh xenograft tumor fragments (˜1 mm^3) were transplanted into the cleared mammary fat pad of recipient SCID/Bg mice (Charles River Laboratories). Mice were treated with SR-3029 or vehicle (10:10:80, DMSO:Tween-80:Water) at 20 mg/kg daily by i.p. injection. Tumor volumes were measured as the indicated intervals using calipers or by luminescence imaging using the IVIS 100 imager (exposure time, 1-60 sec; binning 8; field of view 15-cm; f/stop 1; open filter) following subcutaneous injection of luciferin (15 mg/ml, Goldbio Technology). Average radiance (p/s/cm^2/sr) was determined from tumor region-of-interest (ROI) using Living-Image (Xenogen) analysis software.

[4] = test system: MDA-MB-231 tumor xenografts; experiment: Established orthotopic tumor xenograft; format: in vivo, nude mice; details: 20 mg/kg daily i.p.
Excerpt: as §1
For apoptotic detection in cryosections tumors and small intestines were fixed in 10% buffered formalin for 2 hr, incubated in 20% sucrose overnight and embedded in OCT. Frozen sections ([…]) were mounted and stained using the ApopTag Red In Situ Kit according to the manufacturer instructions (CHEMICON). For H&E staining, tissues were fixed in 10% buffered formalin for 48 hr, transferred to 70% ethanol/PBS and embedded in paraffin. Staining was performed on […] sections following deparaffinization (AML Laboratories).

[5] = test system: BT474 (HER2+) tumor xenografts; experiment: Established orthotopic tumor xenograft; format: in vivo, nude mice; details: 20 mg/kg daily i.p.; tumors 100-mm^3 before treatment
Excerpt: as §1

[6] = test system: MDA-MB-468 (TNBC) tumor xenografts; experiment: Established orthotopic tumor xenograft; format: in vivo, nude mice; details: 20 mg/kg daily i.p.; tumors 100-mm^3 before treatment
Excerpt: as §1

[7] = test system: SKBR3 (HER2+) tumor xenografts; experiment: Established orthotopic tumor xenograft; format: in vivo, nude mice; details: 20 mg/kg daily i.p.; tumors 100-mm^3 before treatment
Excerpt: as §1

[8] = test system: β-catenin; experiment: β-catenin expression by immunoblot in breast cancer cells; format: cell-based, human; details: 18 hr
Method: (§2) SDS-PAGE gel electrophoresis was performed using NuPAGE 4-12% Bis-Tris gels (Invitrogen) and transferred to PVDF membranes by semi-dry transfer using trans-blot transfer medium (Biorad). Membranes were blocked in Odyssey blocking buffer (LI-COR Biosciences) and incubated overnight at 4° C. with primary antibodies. After repeated washes with TBST (20 mM Tris, pH 7.6, 140 mM NaCl and 0.1% Tween-20) blots were incubated with the appropriate IRDye-conjugated secondary antibody (LI-COR Biosciences) and imaged using the LI-COR Odyssey. Bands were quantified using the Odyssey software (LI-COR Biosciences). The following antibodies were used in this study: CK1δ and Histone H4 (Abcam), CK1ε, c-Myc (9E10), Cyclin-D1 and β-actin (Santa Cruz), β-catenin (Cell Signaling), GAPDH (Millipore) and CD44 (R&D Systems).

[9] = test system: β-catenin/TCF target genes; experiment: Expression of Wnt/β-catenin and Notch pathway genes (immunoblot, qPCR); format: cell-based, human; details: 24 hr, 100 nM
Method: as §2
Total RNA was obtained using the RNeasy Plus Mini Kit (Qiagen) and 1-2 μg of RNA was reverse transcribed with Superscript III First Strand Synthesis System (Life Technologies). Quantitative PCR was performed using the Power SYBR Green PCR Master Mix (Life Technologies) and the ABI7900HT Fast Real-Time PCR System. Intron-spanning gene-specific primer pairs were designed using the Primer3 algorithm and relative expression values for each gene of interest obtained by normalizing to GAPDH mRNA expression using the ^ΔΔCt method.

[10] = test system: Wnt-3a-directed induction of the TCF reporter; experiment: Wnt-3a-induced TCF-dependent luciferase reporter assay in HEK293T cells; format: cell-based, human
Method: MDA-MB-231 or HEK293 cells stably expressing the TCF luciferase reporter 7TFP (39) were transfected with β-catenin-S33Y or empty vector (pcDNA). After 18 hr cells were seeded onto a 96-well plate at a density of 6000 cells/well. After 24 hr cells were treated with SR-3029 or vehicle and incubated for 6 hr prior to addition of 1 μg/ml recombinant human Wnt3a (R&D Systems) or PBS. After 3 hr, reporter assays were performed using BriteLite Plus (Perkin Elmer), which was added in equal volume directly to the media and luminescence read using a Spectramax plate reader (Molecular Devices).

[11] = test system: CK1δ and CK1ε; details: cited from earlier work
[12] = test system: kinome; details: cited from earlier work
[13] = molecular target: FLT3 (Homo sapiens, UniProt P36888); details: cited from earlier work
Sequence of FLT3 (P36888 564-993 limits assumed): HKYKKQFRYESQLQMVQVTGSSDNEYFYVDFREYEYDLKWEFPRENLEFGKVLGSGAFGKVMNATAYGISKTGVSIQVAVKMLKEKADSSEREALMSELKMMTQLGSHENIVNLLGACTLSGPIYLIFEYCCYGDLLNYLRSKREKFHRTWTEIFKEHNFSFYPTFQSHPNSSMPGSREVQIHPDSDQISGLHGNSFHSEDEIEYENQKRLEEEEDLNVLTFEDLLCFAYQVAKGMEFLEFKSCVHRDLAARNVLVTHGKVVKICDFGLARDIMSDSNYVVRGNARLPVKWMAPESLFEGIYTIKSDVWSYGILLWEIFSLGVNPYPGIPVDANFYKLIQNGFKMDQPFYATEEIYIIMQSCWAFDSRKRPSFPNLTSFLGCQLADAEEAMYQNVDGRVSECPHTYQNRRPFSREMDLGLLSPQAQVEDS

[14] = in vivo; cited from earlier work

Fc1cccc(-n2cnc3c(NCc4nc5ccc(F)c(F)c5[nH]4)nc(N4CCOCC4)nc32)c1 [SR-3029]
EC50 [1]: 0.005 to 0.07 µM
growth inhibitory and apoptotic effects with constitutively active β-catenin [2]: sufficient to rescue the growth inhibitory and apoptotic effects
tumor growth ([3]; single agent, start seven days after engraftment): markedly impaired tumor growth
recipients that developed tumors ([3]; n=8 per cohort): 2
lifespan (Kaplan-Meier survival) [4]: significantly prolonged lifespan
tumor apoptosis (TUNEL) [4]: fulminant apoptosis
tumor growth ([4]; tumors 100-mm^3 before treatment): marked tumor growth inhibition
tumor growth [5]: marked tumor growth inhibition
tumor growth [6]: marked tumor growth inhibition
tumor growth [7]: marked tumor growth inhibition
expression of the active, nuclear pool of β-catenin ([8]; MDA-MB-231, MDA-MB-436, MDA-MB-468 and BT474 cells, 30 nM): markedly reduced
unphosphorylated, active form of β-catenin (ABC) ([8]; MDA-MB-231 cells): reduction
Notch pathway mRNAs (JAG1, NUMB, DTX) [9]: no effect
expression of endogenous β-catenin/TCF target genes (CCND1, MYC, CD44, WNT3, WNT9A) [9]: repressed
expression of the endogenous Wnt antagonist SFRP1 [9]: marked increase
Wnt-3a-directed induction of the TCF reporter ([10]; 1 μg/ml Wnt-3a, 3 hr): abolished
TCF reporter activity with constitutively active β-catenin (S33Y) ([10]; forced expression of β-catenin S33Y): refractory
type of inhibition, potency and selectivity [11]: ATP competitive inhibitor with exceptional potency and selectivity
off-target kinase affinity ([12]; CDK4, MYLK4 and FLT3, in addition to CK1δ and CK1ε): weaker affinity for only three kinases
fraction of the kinome inhibited [12]: 1%
FLT3 off-target activity [13]: common (and weak) off-target
pharmacokinetic properties [14]: amenable for in vivo studies
